Experimental data as given in PubChem BioAssay (NCI).
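Five concentrations, 48 hours, 96-well plates. Abbreviation: GI50, concentration required for 50% inhibition of growth. TGI: total growth inhibition.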

System: EKVX NSCLC
Experiment: growth of human tumour cells (NCI), 48 h

SMILES	GI50	TGI
CCCCC/C=C/C/C=C/CCCCCCCC1=NC(C)(C)CN1C(C)C	1300 nM	2.73 µM
O=C(CCCSc1nc(-c2ccc(Cl)cc2)cc(-c2ccc(Cl)cc2)n1)NO	1140 nM	12.7 µM
O=C(CC(=O)N1N=C(c2ccccc2)C(N=Nc2ccc(Cl)cc2)C1=O)Nc1ccccc1Cl (centres undefined)		> 100 µM

System: M14 melanoma
Experiment: growth of human tumour cells (NCI), 48 h

SMILES	GI50	TGI
Cc1c2c(nn1-c1ccc(S(=O)(=O)/N=C3\SCC(=O)N3C(=O)c3ccccc3)cc1)-c1ccccc1CC2	22.9 µM	47.1 µM
CN(C)C(=S)/N=c1\ss/c(=N\C(=S)N(C)C)n1-c1ccc2c(c1)OCO2		> 100 µM
COc1ccc(C(=O)/C=C/c2cccnc2Nc2cc(OC)c(OC)c(OC)c2)cc1	2.55 µM	11.9 µM
Nc1c(-c2ccc(Br)cc2)[n+]([O-])c2ccccc2[n+]1[O-]		> 100 µM
CCCCNC(=O)NS(=O)(=O)c1ccc(N2N=C(c3ccc(C)cc3C)CC2c2ccc(N(C)C)cc2)cc1 (centres undefined)	4.06 µM	> 100 µM
C#CC[C@]12CC(=O)CC[C@H]1CC(=O)C2		> 100 µM
CNC=O.[O]=[Ge].[O]=[Ge].[O]=[Ge].[O]=[Ge][OH].[O]=[Ge][OH]		> 100 µM
N#CCCN(c1ccc(/C=C2\N=C(c3ccc(Cl)cc3)OC2=O)cc1)S(=O)(=O)c1ccccc1		> 100 µM
O=C(/C=C/c1ccccc1Cl)c1ccccc1Cl		47.2 µM
CCOC(=O)[C@H]1Nc2ccc(C)cc2C2c3ccccc3CC21 (some centres undefined)		> 100 µM
COc1ccc(-c2nc(-c3nc4ccc(C)cc4[nH]3)c3ccccn23)cc1	3.15 µM	8.6 µM
C[C@]12CC[C@@H]3c4ccc(O)cc4C[C@@H](CCCCCCCCCS(=O)CCCC(F)(F)C(F)(F)F)[C@H]3[C@@H]1CC[C@@H]2O (some centres undefined)	> 100 µM	> 100 µM
COc1cc(-c2c(C#N)c(N)n3c(nc4ccccc43)c2C#N)cc(Br)c1OC	> 100 µM	> 100 µM
N#CCCN(CCC#N)c1ccc(/C=C2\N=C(CN3C(=O)c4ccccc4C3=O)OC2=O)cc1		> 100 µM
Cn1cc(C2=C(c3cn(CCCN=C(N)N)c4ccccc34)C(=O)NC2=O)c2ccccc21	> 25 µM	> 25 µM
N#C/C(C(=S)Nc1ccccc1)=C1/NN=C2c3ccccc3C(=O)NN21	19.3 µM	40.6 µM

SMILES	GI50	TGI
CC#CC(=O)Nc1ccccc1CC(c1c[nH]c2ccccc12)c1c[nH]c2ccccc12		29.7 µM
NCCCNCCSSCCCCS(=O)O		44.2 µM
C[C@]12CC[C@@H]3c4ccc(Oc5nc(N6CC6)nc(N6CC6)n5)cc4CC[C@H]3[C@@H]1CCC2=O	3.58 µM	21.7 µM
COc1cc(C(=O)O[C@H](C(N)=O)[C@]2(C)CO2)c2ccccc2c1	15.1 µM	40 µM
Cc1cccc(C(C)(C)C)c1NC(=O)CCc1n[nH]c(=S)o1		> 100 µM
O=S(O)CCCCSSCCCCSSCCCCS(=O)O		26.5 µM
CC(=O)SCCC1c2[nH]c3ccccc3c2CCN1O (centres undefined)		> 100 µM
CCOC(=O)NC(=O)c1cn(CCCOC(=O)NCCCCCCNC(=O)OCCCn2c(=O)c(C(=O)NC(=O)OCC)cn(C)c2=O)c(=O)n(C)c1=O		> 100 µM
COc1ccc(S(=O)(=O)N(Cc2ccc3c(n2)C=CC(C)(C)O3)C2CCC2)cc1OC	< 0.01 µM	0.228 µM
COc1ccc2cc(C(=O)/C=C/c3cccc(OC)c3OC)ccc2c1	4.58 µM	16.6 µM
CCCCn1c(-c2ccc(C(=O)O/N=C(\N)c3ccc(OC)cc3)cc2)nc(-c2ccccc2)c1-c1ccccc1	3.07 µM	> 100 µM
CC(C)=CC(=O)N1CCN(C(=O)C=C(C)C)CC1		> 100 µM
CCCCC/C=C/C/C=C/CCCCCCCC1=NC(C)(C)CN1C(C)C	1.85 µM	3.4 µM
C[C@]12CC[C@@H]3c4ccc(O)cc4CC[C@H]3[C@@H]1CC[C@@H]2NS(=O)(=O)c1ccc(C(F)(F)F)cc1	1.9 µM	3.6 µM
O=C(CC(=O)N1N=C(c2ccccc2)C(N=Nc2ccc(Cl)cc2)C1=O)Nc1ccccc1Cl (centres undefined)		> 100 µM

System: SK-MEL-2 melanoma
Experiment: growth of human tumour cells (NCI), 48 h

SMILES	GI50	TGI
Cc1c2c(nn1-c1ccc(S(=O)(=O)/N=C3\SCC(=O)N3C(=O)c3ccccc3)cc1)-c1ccccc1CC2	> 100 µM	> 100 µM
CN(C)C(=S)/N=c1\ss/c(=N\C(=S)N(C)C)n1-c1ccc2c(c1)OCO2		> 100 µM
